Test system: cysteine cathepsins
Experiment: Inhibition of probe labeling in living RAW cells by JPM-OEt pretreatment
Assay type: cell-based, mouse
Details: pre-treatment of living RAW cells with JPM-OEt (50 μM, 1 hr); labeling by qABP 8
Method: RAW cells were cultured in DMEM (GIBCO) supplemented with 10% fetal bovine serum (FBS; GIBCO), 100 units/mL penicillin and 100 μg/mL streptomycin (GIBCO). 4T1 cells (ATCC) were cultured in RPMI (GIBCO) supplemented with 10% fetal bovine serum (FBS; GIBCO), 100 units/mL penicillin and 100 μg/mL streptomycin (GIBCO). All cells were cultured in a 5% CO2 humidified incubator at 37° C. For intact cell labeling, cells were exposed to probe (500× in DMSO) in culture media and incubated for 2 hr at 37° C., unless stated otherwise. Where indicated the cells were preincubated for 1 hr with the inhibitor JPM-OEt (500× in DMSO) or exposed to mouse serum (1 μl probe stock solution in DMSO added to 9 μl serum) for 4 hr before addition to the cells. After labeling, the cells were washed with PBS and resuspended in hypotonic lysis buffer (50 mM PIPES pH 7.4, 10 mM KCl, 5 mM MgCl2, 2 mM EDTA, 4 mM DTT, and 1% NP-40) and put on ice for 15 min, centrifuged at 4° C. for 30 min and supernatants were collected, and protein concentration was determined using a BCA kit (pierce). […] Labeling intensities were quantified using Image J software. […] After 15 min on ice and centrifugation at 4° C. for 30 min the supernatants were collected, and protein concentration was determined using a BCA kit (pierce). […] 4×SDS-sample buffer was added and the protein was denatured for 3 min at 100° C. and analyzed as described above. […]

## JPM-OEt
  blocking of probe labeling: more than 90%

— patent publication US11655236B2, “Activity-based probe compounds, compositions, and methods of use” (THE BOARD OF TRUSTEES OF THE LELAND STANFORD JUNIOR …, priority 2013, dated 2023)
